Source: patent publication US9562053B2, “Benzo-fused heterocyclic derivatives useful as agonists of GPR120” (Janssen Pharmaceutica NV, priority 2013, dated 2017)

How the values were obtained:
C57bl/6J Mice [1] = test: GPR120 C57bl6 Mouse IPGTT; assay type: in vivo
Protocol: (§1) Male, C57bl/6J Mice were ordered in at 8 weeks of age from Jackson Labs. Individual mice weighed anywhere in the range of 25-30 grams on study day. The mice were fasted, with removal of food occurring at 7 am on the morning of the study. Animals were moved into the room at 10:00 am, to give them time to acclimate. Glucose (insulin syringes) was drawn up either the night before or the morning of the study. Glucose was dosed (IP) at 1.5 g/kg at 7.5 ml/kg (20% glucose straight TEKNOVA, 250 ml sterile bottle w/catalogue number G0525). Test compounds were kept spinning and were only drawn into the syringes prior to study commencement. Animals were bled via tail snip to determine basal glucose levels prior to dosing of treatments. An Ascensia BREEZE Blood Glucose Monitoring System by Bayer (using unique 10-test disks) was used for determining glucose levels. The bleeds started at approximately 12:45 pm and dosing started, at 1-minute intervals, immediately after. All groups were dosed 30 minutes prior to glucose administration at a dose volume of 10 ml/kg (the dose volume was calculated separately for each individual animal). Thirty minutes after the first dose animals were bled again for a second baseline, or T=0, and immediately dosed with glucose via an i.p. injection. The exact dose volume for glucose was also calculated separately for each individual animal. Glucose measurements were taken at −30 min prior to compound dose, at t=0 (immediately prior to glucose dose), and at 15, 30, 45, 60, 90 min post glucose dose.
(§2) Glucose values were entered into an Excel sheet and graphed in GraphPad Prism. The following were calculated from Prism: Change from −30 to 0 BSLN Glucose, Raw Glucose AUC −30 to 90 min, Delta Glucose AUC −30 to 90 min, Raw Glucose AUC 0 to 90 min, Delta Glucose AUC 0 to 90 min.

C57bl/6J Mice [2] = test: C57bl6 mouse OGTT; assay type: in vivo
Protocol: as §1, §2
The assay design is the same as that described above for the C57bl6 mouse IPGTT. The difference is that glucose was dosed PO at 3 g/kg, 7.5 ml/kg of 40% glucose.

[3] = tested on: C57Bl6 mice on a high fat diet; test: GPR120 DIO Mice OGTT Screening; assay type: in vivo, mouse; details: 10 mg/kg dosed 30 min before glucose, glucose AUC −30 to 90 min, change from vehicle, printed as %
Protocol: 18-22 week old, C57Bl6 mice on a high fat diet (60% HFD) for 12-16 weeks (ave. body weight ˜37-41 g) were fasted for 6 hr, with removal of food occurring at 7 am on the morning of the study. The animals were sorted into treatment groups the day before the study by body weight. Animals outside the bounds of ˜30-50 g were left out of the study. The animals had been handled and shammed a total of 5-8 days (1-3 days immediately prior to the study). Glucose (in 1 ml syringes) was drawn up the morning of the study. Test compounds were kept spinning and were only drawn into 1 ml syringes prior to study commencement. Animals were bled via tail snip to determine basal glucose levels prior to dosing of treatments. […]
Animals were moved into the testing room at ˜9-11 am, to yield them time to acclimate. […] All groups were dosed 30 minutes prior to glucose administration at a dose volume of 10 ml/kg (the dose volume was calculated separately for each individual animal). […]
Thirty minutes after the first dose (with test compound) animals were bled again for a second baseline, or T=0, and immediately dosed with glucose (20% solution; TEKNOVA, 250 ml sterile bottle w/catalogue number G0525) via a PO injection. The exact dose volume for glucose was also calculated separately for each individual animal.
Blood glucose was measured at 15, 30, 45, 60, and 90 minutes post-glucose administration via the snipped tail. […]

SMILES	Dose Responses C57 IPGTT (C57bl/6J Mice [1]; 3 mg/kg) [%]	Dose Responses C57 IPGTT (C57bl/6J Mice [1]; 10 mg/kg) [%]	Dose Responses C57 OGTT (C57bl/6J Mice [2]; 3 mg/kg) [%]	Dose Responses C57 OGTT (C57bl/6J Mice [2]; 10 mg/kg) [%]	Dose Responses C57 OGTT (C57bl/6J Mice [2]; 30 mg/kg) [%]	further results
Cc1cc2cc(F)cc(COc3ccc(CCC(=O)O)c(C)c3C)c2o1 [Compound 2, 3-{4-[(5-Fluoro-2-methyl-1-benzofuran-7-yl)methoxy]-2,3-dimethylphenyl}propanoic acid]	−20	−27	−29	−31	−51	Dose Responses C57 IPGTT (C57bl/6J Mice [1]; 1 mg/kg): −3%; Dose Responses C57 IPGTT (C57bl/6J Mice [1]; 30 mg/kg): −53%
CCc1cc2cc(F)cc(COc3ccc(CCC(=O)O)c(C)c3C)c2o1 [Compound 3, 3-{4-[(2-Ethyl-5-fluoro-1-benzofuran-7-yl)methoxy]-2,3-dimethylphenyl}propanoic acid]	–	–	−15	−24	−35	C57 OGTT result (C57bl/6J Mice [2]; 30 mg/kg, glucose PO 3 g/kg): −35
CCc1cc2cc(Cl)cc(COc3ccc(CCC(=O)O)c(C)c3C)c2o1 [Compound 11, 3-{4-[(5-Chloro-2-ethyl-1-benzofuran-7-yl)methoxy]-2,3-dimethylphenyl}propanoic acid]	–	–	−30	−38	−43	–
CCc1cc2cc(OC(F)(F)F)cc(COc3ccc(CCC(=O)O)c(C)c3C)c2o1 [Compound 12, 3-(4-{[2-Ethyl-5-(trifluoromethoxy)-1-benzofuran-7-yl]methoxy}-2,3-dimethylphenyl)propanoic acid]	–	–	6	−26	−30	–
Cc1cc2cc(OC(F)(F)F)cc(COc3ccc(CCC(=O)O)c(C)c3C)c2o1 [Compound 36, 3-(2,3-Dimethyl-4-{[2-methyl-5-(trifluoromethoxy)-1-benzofuran-7-yl]methoxy}phenyl)propanoic acid]	−7	−36	–	–	–	Dose Responses C57 IPGTT (C57bl/6J Mice [1]; 30 mg/kg): −46%
CCc1cc2cc(Cl)c(C)c(COc3ccc(CCC(=O)O)c(C)c3C)c2o1 [Compound 40, 3-{4-[(5-Chloro-2-ethyl-6-methyl-1-benzofuran-7-yl)methoxy]-2,3-dimethylphenyl}propanoic acid]	13	−34	–	–	–	Dose Responses C57 IPGTT (C57bl/6J Mice [1]; 1 mg/kg): −28%
Cc1cc2c(F)c(OC(F)(F)F)c(F)c(COc3ccc(CCC(=O)O)c(F)c3F)c2o1 [Compound 75, 3-(4-{[4,6-Difluoro-2-methyl-5-(trifluoromethoxy)-1-benzofuran-7-yl]methoxy}-2,3-difluorophenyl)propanoic acid]	–	–	–	–	–	DIO Lowering Glucose AUC (−30 to 90) @10 mg/kg [3]: −31%
Cc1cc2cc(Cl)c(C)c(COc3ccc(CCC(=O)O)c(C)c3C)c2o1 [Compound 85, 3-{4-[(5-Chloro-2,6-dimethyl-1-benzofuran-7-yl)methoxy]-2,3-dimethylphenyl}propanoic acid]	–	–	–	–	–	DIO Lowering Glucose AUC (−30 to 90) @10 mg/kg [3]: −37%
